# Laboratory results taken from patent publication US9993494B2, “Compositions and methods for treating fibrotic disease” (eFFECTOR Therapeutics, Inc., priority 2014, dated 2018).
# Experiments:
# Format in all cases: cell-based
# [1] = system: normal human lung fibroblasts; experiment: Western blot of α-smooth muscle actin (α-SMA) in TGFβ-treated fibroblasts; details: fibroblasts treated with TGFβ, 24 hours, western blot
# Experimental: (§1) Briefly, normal human lung fibroblasts (Lonza #CC-2512; cell passage numbers 2 through 5 were used for all experiments) were seeded (Day 0) and cultured in Dulbecco's modified Eagle medium (DMEM) supplemented with 10% fetal bovine serum (FBS), penicillin, streptomycin and glutamax (Invitrogen) at 37° C. in a humidified incubator with 5% CO2 overnight. On Day 1, cells were harvested, washed with phosphate buffered saline (PBS), and then incubated for 48 hours in fresh serum-free DMEM supplemented with penicillin, streptomycin, and glutamax.
# (§2) After this 24 hour incubation, procollagen type 1 levels were measured by collecting culture media, centrifuging to pellet cellular debris, and stored at −80° C. Procollagen Type 1 C-Peptide (PIPC) was quantified using the (PIP) EIA kit (Clontech, Cat. No. MK101) according to manufacturer's instructions. The TGFβ-treated fibroblasts of this example were examined by ribosomal profiling (about 6×10^6 cells/10 cm plate) and western blot analysis (about 1×10^6 cells/well of a 6-well plate).
# TGFβ-dependent activation of the PI3K/Akt/mTOR and ERK pathways were also examined by western blot analysis (about 1×10^6 cells/well from a 6-well plate). Briefly, cells were washed with PBS and lysed in 1× cell lysis buffer (Cell Signaling Technology, Inc., Danvers, Mass.) for 15 minutes at 4° C. Lysates were briefly sonicated, clarified by centrifugation for 15 minutes at 14,000 rpm, and then supernatants were collected. Protein concentration in the soluble fraction was determined by BCA protein assay (Thermo Scientific, Rockford, Ill.). Samples of protein (20 μg) were resolved on 4-20% Bis-Tris gradient gel (Invitrogen, Carlsbad, Calif.) and transferred to nitrocellulose membrane. The resulting blots were blocked for 1 hour at room temperature with Odyssey blocking solution (LI-COR) and then incubated with primary antibodies at 4° C. overnight. The following day, each blot was washed three times for 10 minutes in TBST, and then incubated with goat anti-rabbit fluorescent conjugated secondary antibody (IRDye 800 CW at 1:20,000; LI-COR) for 1 hour at room temperature. The blots were washed and scanned, and then specific proteins were detected by using the LI-COR Odyssey infrared imager. The following antibodies were used at 1:1000 dilution: anti-α-actin (Sigma #A2547), anti-phospho-4EBP(Ser65), anti-phospho-rpS6(Ser235/236)(#4858), anti-phospho-ERK1/2(Thr202/Tyr204)(#4370), anti-phospho-p70S6K(Thr421/Ser424)(#9204), anti-phospho-pAKT(Ser473), anti-phospho-MNK(Thr197/202), and anti-β-actin (#4970). Unless otherwise indicated, the antibodies were from Cell Signaling Technology, Inc. (Danvers, Mass.).
# as §1, with “(Lonza;” for “(Lonza #CC-2512;”, “CO2 conditions” for “CO2”, “glutamax. On Day 3, cells were harvested, resuspended in fresh serum-free DMEM containing silvestrol (1, 5, 10, 75, 100, 500, or 1000 nM) and 10 ng/ml TGFβ, and cultured for 24 hours. Controls included untreated cells and cells treated with only TGFβ.” for “glutamax.”
# as §2, with “kit (Clontech)” for “kit (Clontech, Cat. No. MK101)”, “example are” for “example were”
# [2] = system: normal human lung fibroblasts; experiment: Procollagen Type 1 C-Peptide (PIPC) EIA in culture media of TGFβ-treated fibroblasts; details: fibroblasts treated with TGFβ, 24 hours, procollagen ELISA
# Experimental: as §1, §2
# as §1, with “(Lonza;” for “(Lonza #CC-2512;”, “CO2 conditions” for “CO2”, “glutamax. On Day 3, cells were harvested, resuspended in fresh serum-free DMEM containing silvestrol (1, 5, 10, 75, 100, 500, or 1000 nM) and 10 ng/ml TGFβ, and cultured for 24 hours. Controls included untreated cells and cells treated with only TGFβ.” for “glutamax.”
# as §2, with “kit (Clontech)” for “kit (Clontech, Cat. No. MK101)”, “example are” for “example were”
# The levels of α-SMA and procollagen type 1, markers of fibroblast transdifferentiation into myofibroblasts and a surrogate for fibrotic disease progression, were measured after a 24 hour incubation of fibroblasts in the presence or absence of TGFβ sieIF4A1 or siCont. The knockdown efficiency was determined by quantitating the eIF4A mRNA level by qPCR (data not shown) and assessing the protein level by western analysis (see FIG. 11).
# [3] = system: normal human lung fibroblasts; experiment: Ribosomal profiling: translational efficiency in TGFβ-treated fibroblasts; details: vs untreated fibroblasts
# Experimental: Ribosomal profiling allows for measurement of changes in transcription and translation on a genome-wide basis accompanying TGFβ-dependent transformation of fibroblasts to myofibroblasts. Ribosomal profiles of the TGFβ-treated fibroblasts from Example 1 (about 6×10^6 cells/10 cm plate) were prepared and analyzed for changes in translational efficiencies with respect to potential disease-associated cellular changes accompanying this TGFβ-induced transformation.
# Briefly, cells were washed with cold PBS supplemented with cycloheximide and lysed with 1× mammalian cell lysis buffer for 10 minutes on ice. Lysates were clarified by centrifugation for 10 minutes at 14,000 rpm and supernatants were collected. Cell lysates were processed to generate ribosomal protected fragments and total mRNA according to the instructions included with the ARTseq Ribosome Profiling Kit (Illumina, San Diego, Calif.). Sequencing of total RNA (RNA) and of ribosome-protected fragments of RNA (RPF) was carried out using RNA-Seq methodology according to the manufacturer's instructions (Illumina). To analyze the ribosomal profiles, RNA-Seq reads were processed with tools from the FASTX-Toolkit (fastq_quality_trimmer, fastx_clipper and fastx_trimmer). Unprocessed and processed reads were evaluated for a variety of quality measures using FastQC, and processed reads were mapped to the human genome using TopHat (see, e.g., Trapnell et al., Bioinformatics 25:1105, 2009). Gene-by-gene assessment of the number of fragments strictly and uniquely mapping to the coding region of each gene was conducted using HTSeq-count, a component of the HTSeq package. […] Genes with low counts in either RPF or RNA were excluded from differential analyses. Pathway and network analyses of differential data were conducted using Ingenuity Pathway Analysis (IPA).
molecule,measurement,setting,value
"O=C(Nc1ccc(Cl)cc1)Nc1ccc2nonc2c1 [BOCPU, 1-(benzo[c][1,2,5]oxadiazol-5-yl)-3-(4-chlorophenyl)urea]",% Renormalization α-SMA,[1],+++ (+++ = >60%)
CO[C@H]1C[C@@H]2CC[C@@H](C)[C@@](O)(O2)C(=O)C(=O)N2CCCC[C@H]2C(=O)O[C@H]([C@H](C)C[C@@H]2CC[C@@H](O)[C@H](OC)C2)CC(=O)[C@H](C)/C=C(\C)[C@@H](O)[C@@H](OC)C(=O)[C@H](C)C[C@H](C)/C=C/C=C/C=C/1C [Rapamycin],% Renormalization α-SMA,[1],+ (+ = 0-30%)
same,% Renormalization Collagen,[2],++ (++ = 30-60%)
"Nc1nccc2c1ncn2[C@@H]1O[C@H](CO)[C@@H](O)[C@H]1O [DZA, 3-deaza-adenosine]",% Renormalization α-SMA,[1],+ (+ = 0-30%)
same,% Renormalization Collagen,[2],+ (+ = 0-30%)
TGF-β,Log2FC TE AKT1,[3],−0.15
same,Log2FC TE AKT2,[3],−0.16
same,Log2FC TE AKT3,[3],0.35
same,Log2FC TE ATM,[3],−0.16
same,Log2FC TE EIF1,[3],0.75
same,Log2FC TE EIF2A,[3],0.74
same,Log2FC TE EIF2AK1,[3],−0.25
same,Log2FC TE EIF2AK3,[3],0.67
same,Log2FC TE EIF2AK4,[3],−0.28
same,Log2FC TE EIF2B1,[3],0.57
same,Log2FC TE EIF2B2,[3],0.16
same,Log2FC TE EIF2B3,[3],0.54
same,Log2FC TE EIF2B4,[3],−0.35
same,Log2FC TE EIF2B5,[3],0.46
same,Log2FC TE EIF2C2,[3],0.12
same,Log2FC TE EIF2S1,[3],−0.18
same,Log2FC TE EIF2S2,[3],−0.43
same,Log2FC TE EIF2S3,[3],1.05
same,Log2FC TE EIF3A,[3],0.04
same,Log2FC TE EIF3B,[3],0.30
same,Log2FC TE EIF3D,[3],0.71
same,Log2FC TE EIF3E,[3],1.33
same,Log2FC TE EIF3F,[3],0.92
same,Log2FC TE EIF3G,[3],0.55
same,Log2FC TE EIF3H,[3],1.34
same,Log2FC TE EIF3I,[3],0.29
same,Log2FC TE EIF3K,[3],0.73
same,Log2FC TE EIF3L,[3],1.63
same,Log2FC TE EIF3M,[3],0.90
same,Log2FC TE EIF4A1,[3],0.35
same,Log2FC TE EIF4A2,[3],0.41
same,Log2FC TE EIF4A3,[3],0.19
same,Log2FC TE EIF4E,[3],−0.51
same,Log2FC TE EIF4G1,[3],0.10
same,Log2FC TE EIF4G2,[3],0.87
same,Log2FC TE EIF4G3,[3],−0.54
same,Log2FC TE EIF5,[3],0.56
same,Log2FC TE FAU,[3],0.35
same,Log2FC TE GRB2,[3],0.05
same,Log2FC TE GSK3B,[3],−0.13
same,Log2FC TE HRAS,[3],0.13
same,Log2FC TE MAP2K1,[3],−0.18
same,Log2FC TE MAP2K2,[3],0.02
same,Log2FC TE MAPK1,[3],0.12
same,Log2FC TE MAPK3,[3],0.29
same,Log2FC TE MRAS,[3],−0.45
same,Log2FC TE NRAS,[3],0.19
same,Log2FC TE PABPC1,[3],0.16
same,Log2FC TE PAIP1,[3],−0.69
same,Log2FC TE PIK3C2A,[3],−0.64
same,Log2FC TE PIK3C3,[3],−0.09
same,Log2FC TE PIK3CA,[3],−0.66
same,Log2FC TE PIK3R4,[3],−0.69
same,Log2FC TE PPP1CA,[3],0.04
same,Log2FC TE PPP1CB,[3],0.13
same,Log2FC TE PPP1CC,[3],0.27
same,Log2FC TE PPP1R15A,[3],−0.09
same,Log2FC TE RAF1,[3],0.16
same,Log2FC TE RPL3,[3],1.68
same,Log2FC TE RPL4,[3],1.23
same,Log2FC TE RPL5,[3],1.49
same,Log2FC TE RPL6,[3],1.13
same,Log2FC TE RPL7,[3],0.59
same,Log2FC TE RPL7A,[3],1.37
same,Log2FC TE RPL8,[3],0.69
same,Log2FC TE RPL9,[3],1.41
same,Log2FC TE RPL10,[3],0.74
same,Log2FC TE RPL10A,[3],0.92
same,Log2FC TE RPL11,[3],0.78
same,Log2FC TE RPL12,[3],1.28
same,Log2FC TE RPL13,[3],0.83
same,Log2FC TE RPL13A,[3],1.26
same,Log2FC TE RPL14,[3],1.08
same,Log2FC TE RPL15,[3],0.95
same,Log2FC TE RPL17,[3],0.97
same,Log2FC TE RPL18,[3],0.81
same,Log2FC TE RPL18A,[3],1.06
same,Log2FC TE RPL19,[3],0.71
same,Log2FC TE RPL21,[3],0.83
same,Log2FC TE RPL22,[3],0.22
same,Log2FC TE RPL22L1,[3],0.84
same,Log2FC TE RPL23,[3],0.79
same,Log2FC TE RPL23A,[3],1.03
same,Log2FC TE RPL24,[3],1.09
same,Log2FC TE RPL26,[3],1.42
same,Log2FC TE RPL27,[3],1.17
same,Log2FC TE RPL27A,[3],1.17
same,Log2FC TE RPL28,[3],1.24
same,Log2FC TE RPL29,[3],1.16
same,Log2FC TE RPL30,[3],1.20
same,Log2FC TE RPL31,[3],0.80
same,Log2FC TE RPL32,[3],1.55
same,Log2FC TE RPL34,[3],1.21
same,Log2FC TE RPL35,[3],0.59
same,Log2FC TE RPL35A,[3],1.22
same,Log2FC TE RPL36,[3],0.76
same,Log2FC TE RPL36AL,[3],−0.08
same,Log2FC TE RPL37,[3],1.31
same,Log2FC TE RPL37A,[3],1.33
same,Log2FC TE RPL38,[3],1.00
same,Log2FC TE RPL41,[3],0.85
same,Log2FC TE RPLP0,[3],0.73
same,Log2FC TE RPLP1,[3],0.50
same,Log2FC TE RPLP2,[3],0.93
same,Log2FC TE RPS2,[3],0.88
same,Log2FC TE RPS3,[3],1.22
same,Log2FC TE RPS3A,[3],1.48
same,Log2FC TE RPS4X,[3],1.14
same,Log2FC TE RPS4Y1,[3],0.78
same,Log2FC TE RPS5,[3],0.75
same,Log2FC TE RPS6,[3],1.59
same,Log2FC TE RPS7,[3],1.13
same,Log2FC TE RPS8,[3],1.20
same,Log2FC TE RPS9,[3],0.97
same,Log2FC TE RPS10,[3],0.74
same,Log2FC TE RPS11,[3],0.97
same,Log2FC TE RPS12,[3],0.94
same,Log2FC TE RPS13,[3],1.15
same,Log2FC TE RPS14,[3],1.01
same,Log2FC TE RPS15,[3],0.74
same,Log2FC TE RPS15A,[3],1.53
same,Log2FC TE RPS16,[3],1.10
same,Log2FC TE RPS18,[3],1.18
same,Log2FC TE RPS19,[3],0.99
same,Log2FC TE RPS20,[3],1.39
same,Log2FC TE RPS21,[3],1.36
same,Log2FC TE RPS23,[3],0.74
same,Log2FC TE RPS24,[3],0.66
same,Log2FC TE RPS25,[3],1.58
same,Log2FC TE RPS26,[3],0.71
same,Log2FC TE RPS27,[3],1.08
same,Log2FC TE RPS27A,[3],0.71
same,Log2FC TE RPS27L,[3],−0.15
same,Log2FC TE RPS28,[3],0.74
same,Log2FC TE RPS29,[3],0.89
same,Log2FC TE RPSA,[3],0.99
same,Log2FC TE RRAS,[3],0.00
same,Log2FC TE RRAS2,[3],0.02
same,Log2FC TE SHC1,[3],−0.04
same,Log2FC TE SOS2,[3],0.49
same,Log2FC TE UBA52,[3],0.87
